This note sets out measurements from PMC4418468 (BioTechniques, 2009).

The test concerns the target CXCR7 (Homo sapiens, UniProt P25106). As to the kind of experiment: competition of CXCL12-Gaussia luciferase binding to intact cells at […] °C. The class given is cell-based.

Sequence of CXCR7 (P25106 whole entry): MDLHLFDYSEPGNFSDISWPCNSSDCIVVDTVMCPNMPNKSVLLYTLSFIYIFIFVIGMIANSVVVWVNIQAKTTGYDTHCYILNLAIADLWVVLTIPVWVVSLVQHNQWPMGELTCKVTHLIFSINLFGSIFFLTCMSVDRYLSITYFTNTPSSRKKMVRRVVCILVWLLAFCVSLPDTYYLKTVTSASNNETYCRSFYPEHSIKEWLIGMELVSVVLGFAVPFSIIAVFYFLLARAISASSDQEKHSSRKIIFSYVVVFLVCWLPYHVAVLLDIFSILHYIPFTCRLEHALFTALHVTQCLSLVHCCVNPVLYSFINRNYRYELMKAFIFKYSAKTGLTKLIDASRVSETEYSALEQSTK

A word on the EC50: it is the concentration needed to bring the measured effect to its halfway point. Read a high EC50 as lower potency in that assay. CCX733 came in with an EC50 of roughly 18 nM.

For the substance CCX754, the EC50 was roughly 250 nM.
